{"source": "patent US20100086483A1", "about": "“METHOD OF MULTIDETECTOR COMPUTED TOMAGRAPHY” (Gilead Palo Alto, Inc., priority 2008, published 2010)", "system": "conscious dogs", "test": "Effects of caffeine on regadenoson-induced coronary vasodilation and changes in hemodynamics in conscious dogs (Part II)", "format": "in vivo, dog", "conditions": "for duration of 2-fold increase in CBF / maximum CBF: time control group, 4 dogs", "procedure": "Sixteen chronically instrumented male mongrel dogs weighing from 22-30 kg were used in the study. The animal protocol was approved by the Institutional Animal Care and Use Committee of New York Medical College and conforms to the Guide for the Care and Use of Laboratory Animal by the United States National Institutes of Health.\nDogs were sedated with acepromazine (0.3 mg/kg, IM) and anesthetized with pentobarbital sodium (25 mg/kg, IV). After intubation, dogs were artificially ventilated with room air. A thoracotomy was made in the fifth intercostal space using sterile techniques. A Tygon catheter (Cardiovascular Instruments, Wakefield, Mass.) was inserted into the descending thoracic aorta and another one was inserted into the left atrium. In 9 dogs, an ultrasound flow transducer (Transonic Systems, Ithaca, N.Y.) was placed around the left circumflex coronary artery. A solid-state pressure gauge (P6.5, Konisberg Instruments, Pasadena, Calif.) was placed into the left ventricle through the apex. The chest was closed in layers. The catheters and wires were tunneled subcutaneously and externalized through the skin at the back of the dog's neck. Dogs were allowed to recover from the surgery before experiments were performed, and were trained to lie on a table.\nPhasic arterial pressure was measured by connecting the aortic catheter to a strain gauge transducer (P23 ID, LDS Test and Measurement, Valley View, Ohio). Left ventricular pressures were measured by the solid pressure gauge. CBF (mL/min) was measured from an ultrasound flow transducer using a Transonic flowmeter (T206, Transonic Systems, Ithaca, N.Y.). Two indices were used to describe the regadenoson-induced coronary vasodilation: 1) the maximum increase in CBF and 2) the duration of the 2-fold increase in CBF (the period of time that CBF was elevated to a level ≧2-fold of baseline CBF). All pressure and flow data were acquired and analyzed using a Ponemah System (Version 3.30 or 4.20, LDS Test and Measurement, Valley View, Ohio). MAP and HR were calculated from phasic blood pressure, and LV dP/dtMax was calculated from the left ventricular systolic pressure.\nOn the day of an experiment, a dog was placed on a table, where it lay quietly during the experiment. A catheter was inserted into a peripheral vein in the leg and attached to an infusion line to administer drugs without disturbing the dog. The experiment was begun after MAP, HR and CBF were stable.\nEach dog received an IV injection of 5 μg/kg of regadenoson. […] LVSP, LV dP/dtMax, MAP, HR and CBF were recorded continuously. Blood samples were taken from the left atrial catheter at 1, 3, 5, 15, 30, 45 and 60 min following injections of regadenoson.\nIn 4 dogs, two doses of regadenoson (5 μg/kg, IV) were given 90 min apart (without blood sampling) to determine if there is tachyphylaxis of regadenoson-induced coronary vasodilation.\nThe statistical significance of a difference between the value of a parameter at baseline and at the indicated time point after drug administration was determined using a One-Way Repeated Measures ANOVA followed by Tukey's Test. […] Results with p<0.05 were considered to be significant. […] All data are presented as Mean±SEM.", "key": {"[1]": {"conditions": "regadenoson 5 μg/kg IV without caffeine (control of caffeine 2 mg/kg group), 4 min"}, "[2]": {"conditions": "regadenoson 5 μg/kg IV without caffeine (control of caffeine 2 mg/kg group), 5 min"}, "[3]": {"conditions": "regadenoson 5 μg/kg IV without caffeine (control of caffeine 2 mg/kg group), 10 min"}, "[4]": {"conditions": "regadenoson 5 μg/kg IV without caffeine (control of caffeine 2 mg/kg group), 15 min"}, "[5]": {"conditions": "regadenoson 5 μg/kg IV without caffeine (control of caffeine 2 mg/kg group), 20 min"}, "[6]": {"conditions": "regadenoson 5 μg/kg IV without caffeine (control of caffeine 4 mg/kg group), 0.5 min"}, "[7]": {"conditions": "regadenoson 5 μg/kg IV without caffeine (control of caffeine 4 mg/kg group), 1 min"}, "[8]": {"conditions": "regadenoson 5 μg/kg IV without caffeine (control of caffeine 4 mg/kg group), 2 min"}, "[9]": {"conditions": "regadenoson 5 μg/kg IV without caffeine (control of caffeine 4 mg/kg group), 3 min"}, "[10]": {"conditions": "regadenoson 5 μg/kg IV without caffeine (control of caffeine 4 mg/kg group), 4 min"}, "[11]": {"conditions": "regadenoson 5 μg/kg IV without caffeine (control of caffeine 4 mg/kg group), 5 min"}, "[12]": {"conditions": "regadenoson 5 μg/kg IV without caffeine (control of caffeine 4 mg/kg group), 10 min"}, "[13]": {"conditions": "regadenoson 5 μg/kg IV without caffeine (control of caffeine 4 mg/kg group), 15 min"}, "[14]": {"conditions": "regadenoson 5 μg/kg IV without caffeine (control of caffeine 4 mg/kg group), 20 min"}, "[15]": {"conditions": "regadenoson 5 μg/kg IV without caffeine (control of caffeine 10 mg/kg group), 0.5 min"}, "[16]": {"conditions": "regadenoson 5 μg/kg IV without caffeine (control of caffeine 10 mg/kg group), 1 min"}, "[17]": {"conditions": "regadenoson 5 μg/kg IV without caffeine (control of caffeine 10 mg/kg group), 2 min"}, "[18]": {"conditions": "regadenoson 5 μg/kg IV without caffeine (control of caffeine 10 mg/kg group), 3 min"}, "[19]": {"conditions": "regadenoson 5 μg/kg IV without caffeine (control of caffeine 10 mg/kg group), 4 min"}, "[20]": {"conditions": "regadenoson 5 μg/kg IV without caffeine (control of caffeine 10 mg/kg group), 5 min"}, "[21]": {"conditions": "regadenoson 5 μg/kg IV without caffeine (control of caffeine 10 mg/kg group), 10 min"}, "[22]": {"conditions": "regadenoson 5 μg/kg IV without caffeine (control of caffeine 10 mg/kg group), 15 min"}, "[23]": {"conditions": "regadenoson 5 μg/kg IV without caffeine (control of caffeine 10 mg/kg group), 20 min"}, "[24]": {"conditions": "regadenoson 5 μg/kg IV, absence of caffeine, n=8"}, "[25]": {"conditions": "regadenoson 5 μg/kg IV, absence of caffeine, n=9"}, "[26]": {"conditions": "first injection of regadenoson 5 μg/kg IV"}, "[27]": {"conditions": "second injection of regadenoson 5 μg/kg IV 90 min later"}}}
{"smiles": "CNC(=O)c1cnn(-c2nc(N)c3ncn([C@@H]4O[C@H](CO)[C@@H](O)[C@H]4O)c3n2)c1", "note": "[Regadenoson, (1-{9-[(4S,2R,3R,5R)-3,4-dihydroxy-5-(hydroxymethyl)oxolan-2-yl]-6-aminopurin-2-yl}pyrazol-4-yl)-N-methylcarboxamide]", "values": [{"measurement": "HR", "setting": "[1]", "result": "127 ± 4", "unit": "bpm"}, {"measurement": "MAP", "setting": "[1]", "result": "93 ± 4", "unit": "mm Hg"}, {"measurement": "HR", "setting": "[2]", "result": "129 ± 6", "unit": "bpm"}, {"measurement": "MAP", "setting": "[2]", "result": "90 ± 3", "unit": "mm Hg"}, {"measurement": "HR", "setting": "[3]", "result": "104 ± 5", "unit": "bpm"}, {"measurement": "MAP", "setting": "[3]", "result": "91 ± 2", "unit": "mm Hg"}, {"measurement": "HR", "setting": "[4]", "result": "104 ± 6", "unit": "bpm"}, {"measurement": "MAP", "setting": "[4]", "result": "96 ± 3", "unit": "mm Hg"}, {"measurement": "HR", "setting": "[5]", "result": "93 ± 7", "unit": "bpm"}, {"measurement": "MAP", "setting": "[5]", "result": "97 ± 3", "unit": "mm Hg"}, {"measurement": "HR", "setting": "[6]", "result": "166 ± 18", "unit": "bpm"}, {"measurement": "MAP", "setting": "[6]", "result": "107 ± 6", "unit": "mm Hg"}, {"measurement": "HR", "setting": "[7]", "result": "163 ± 8", "unit": "bpm"}, {"measurement": "MAP", "setting": "[7]", "result": "95 ± 5", "unit": "mm Hg"}, {"measurement": "HR", "setting": "[8]", "result": "158 ± 6", "unit": "bpm"}, {"measurement": "MAP", "setting": "[8]", "result": "99 ± 4", "unit": "mm Hg"}, {"measurement": "HR", "setting": "[9]", "result": "141 ± 4", "unit": "bpm"}, {"measurement": "MAP", "setting": "[9]", "result": "98 ± 4", "unit": "mm Hg"}, {"measurement": "HR", "setting": "[10]", "result": "131 ± 6", "unit": "bpm"}, {"measurement": "MAP", "setting": "[10]", "result": "100 ± 2", "unit": "mm Hg"}, {"measurement": "HR", "setting": "[11]", "result": "128 ± 7", "unit": "bpm"}, {"measurement": "MAP", "setting": "[11]", "result": "100 ± 2", "unit": "mm Hg"}, {"measurement": "HR", "setting": "[12]", "result": "113 ± 5", "unit": "bpm"}, {"measurement": "MAP", "setting": "[12]", "result": "100 ± 2", "unit": "mm Hg"}, {"measurement": "HR", "setting": "[13]", "result": "102 ± 6", "unit": "bpm"}, {"measurement": "MAP", "setting": "[13]", "result": "101 ± 4", "unit": "mm Hg"}, {"measurement": "HR", "setting": "[14]", "result": "101 ± 6", "unit": "bpm"}, {"measurement": "MAP", "setting": "[14]", "result": "102 ± 4", "unit": "mm Hg"}, {"measurement": "HR", "setting": "[15]", "result": "149 ± 15", "unit": "bpm"}, {"measurement": "MAP", "setting": "[15]", "result": "93 ± 3", "unit": "mm Hg"}, {"measurement": "HR", "setting": "[16]", "result": "144 ± 7", "unit": "bpm"}, {"measurement": "MAP", "setting": "[16]", "result": "86 ± 4", "unit": "mm Hg"}, {"measurement": "HR", "setting": "[17]", "result": "148 ± 5", "unit": "bpm"}, {"measurement": "MAP", "setting": "[17]", "result": "89 ± 4", "unit": "mm Hg"}, {"measurement": "HR", "setting": "[18]", "result": "135 ± 4", "unit": "bpm"}, {"measurement": "MAP", "setting": "[18]", "result": "89 ± 4", "unit": "mm Hg"}, {"measurement": "HR", "setting": "[19]", "result": "130 ± 5", "unit": "bpm"}, {"measurement": "MAP", "setting": "[19]", "result": "92 ± 4", "unit": "mm Hg"}, {"measurement": "HR", "setting": "[20]", "result": "127 ± 6", "unit": "bpm"}, {"measurement": "MAP", "setting": "[20]", "result": "92 ± 4", "unit": "mm Hg"}, {"measurement": "HR", "setting": "[21]", "result": "105 ± 4", "unit": "bpm"}, {"measurement": "MAP", "setting": "[21]", "result": "95 ± 4", "unit": "mm Hg"}, {"measurement": "HR", "setting": "[22]", "result": "98 ± 3", "unit": "bpm"}, {"measurement": "MAP", "setting": "[22]", "result": "93 ± 6", "unit": "mm Hg"}, {"measurement": "HR", "setting": "[23]", "result": "99 ± 7", "unit": "bpm"}, {"measurement": "MAP", "setting": "[23]", "result": "98 ± 5", "unit": "mm Hg"}, {"measurement": "peak increase in LV dP/dtMax from baseline", "setting": "regadenoson 5 μg/kg IV, absence of caffeine", "result": "65±7", "unit": "%"}, {"measurement": "duration of the 2-fold increase in CBF", "setting": "[24]", "result": "515 ± 71", "unit": "s"}, {"measurement": "peak CBF", "setting": "[24]", "result": "191 ± 7", "unit": "mL/min"}, {"measurement": "peak decrease in LVSP from baseline", "setting": "[24]", "result": "9±1", "unit": "%"}, {"measurement": "peak decrease in MAP from baseline", "setting": "[25]", "result": "15±2", "unit": "%"}, {"measurement": "peak increase in HR from baseline", "setting": "[25]", "result": "114±14", "unit": "%"}, {"measurement": "duration of 2-fold increase in CBF", "setting": "[26]", "result": "401 ± 45", "unit": "s"}, {"measurement": "maximum CBF", "setting": "[26]", "result": "178 ± 17", "unit": "mL/min"}, {"measurement": "duration of 2-fold increase in CBF", "setting": "[27]", "result": "395 ± 43", "unit": "s"}, {"measurement": "maximum CBF", "setting": "[27]", "result": "176 ± 6", "unit": "mL/min"}, {"measurement": "differences in baseline CBF, maximum CBF or duration of 2-fold increase in CBF between two injections (tachyphylaxis)", "setting": "two injections of regadenoson 5 μg/kg IV 90 min apart", "result": "no statistically significant differences"}]}
